Reference: ChEMBL document CHEMBL3991601, “The target landscape of clinical kinase drugs” (Science, 2017)
The source made the active and inactive calls. Cut-off read from the data, not from the text of the source, for most assays here: actives have a measured Kd and inactives only a lower limit.

These compounds were tested against Cyclin-dependent kinase 6 (Homo sapiens, UniProt Q00534). Conditions: not given.
Note: in the data inactive means no Kd found up to 30 µM.

Sequence of Cyclin-dependent kinase 6 (Q00534 whole entry): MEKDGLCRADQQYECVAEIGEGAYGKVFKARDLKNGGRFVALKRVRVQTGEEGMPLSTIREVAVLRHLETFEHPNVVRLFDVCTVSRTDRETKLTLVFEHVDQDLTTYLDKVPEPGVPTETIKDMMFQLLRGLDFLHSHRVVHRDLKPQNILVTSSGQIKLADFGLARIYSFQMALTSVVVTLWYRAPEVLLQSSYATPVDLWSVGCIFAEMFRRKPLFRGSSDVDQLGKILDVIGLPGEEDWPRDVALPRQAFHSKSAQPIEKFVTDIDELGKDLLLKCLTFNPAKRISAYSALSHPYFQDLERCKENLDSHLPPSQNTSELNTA

SMILES | Kd
CNC(=O)c1ccc(-c2cnc3ncc(Cc4ccc5ncccc5c4)n3n2)cc1F [CAPMATINIB] | > 30 µM (inactive)
O=C(c1ccc(F)c(F)c1Nc1ccc(I)cc1F)N1CC(O)([C@@H]2CCCCN2)C1 [COBIMETINIB] | > 30 µM (inactive)
Cc1nc(N)sc1-c1ccnc(Nc2ccc(N3CCOCC3)cc2)n1 [CYC-116] | 1.72 µM (active)
CN1CCN(c2ccc3nc(-c4c(N)c5c(F)cccc5[nH]c4=O)[nH]c3c2)CC1 [DOVITINIB] | 2.83 µM (active)

What follows are compounds tested against Dual specificity tyrosine-phosphorylation-regulated kinase 1A (Homo sapiens, UniProt Q13627). Conditions: not given.

SMILES | Kd
CNC(=O)c1ccc(-c2cnc3ncc(Cc4ccc5ncccc5c4)n3n2)cc1F [CAPMATINIB] | > 30 µM (inactive)
O=C(c1ccc(F)c(F)c1Nc1ccc(I)cc1F)N1CC(O)([C@@H]2CCCCN2)C1 [COBIMETINIB] | > 30 µM (inactive)

These compounds were tested against Glycogen synthase kinase-3 beta (Homo sapiens, UniProt P49841). Conditions: not given.
Sequence of Glycogen synthase kinase-3 beta (P49841 whole entry): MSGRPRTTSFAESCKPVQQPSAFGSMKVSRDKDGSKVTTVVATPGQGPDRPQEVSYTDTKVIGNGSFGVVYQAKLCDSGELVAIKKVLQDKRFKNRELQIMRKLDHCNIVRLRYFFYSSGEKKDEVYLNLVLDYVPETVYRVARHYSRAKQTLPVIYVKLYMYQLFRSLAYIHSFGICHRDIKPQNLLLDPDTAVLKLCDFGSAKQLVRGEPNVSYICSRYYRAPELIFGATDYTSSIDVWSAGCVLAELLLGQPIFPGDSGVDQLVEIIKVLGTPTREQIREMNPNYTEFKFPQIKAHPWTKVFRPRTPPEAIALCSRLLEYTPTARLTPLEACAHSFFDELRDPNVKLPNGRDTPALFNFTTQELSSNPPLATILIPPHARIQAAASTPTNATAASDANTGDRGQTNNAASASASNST

SMILES | Kd
O=C(c1ccc(F)c(F)c1Nc1ccc(I)cc1F)N1CC(O)([C@@H]2CCCCN2)C1 [COBIMETINIB] | > 30 µM (inactive)

The compounds below were run against Mitogen-activated protein kinase 3 (Homo sapiens, UniProt P27361). Conditions: not given.
Sequence of Mitogen-activated protein kinase 3 (P27361 whole entry): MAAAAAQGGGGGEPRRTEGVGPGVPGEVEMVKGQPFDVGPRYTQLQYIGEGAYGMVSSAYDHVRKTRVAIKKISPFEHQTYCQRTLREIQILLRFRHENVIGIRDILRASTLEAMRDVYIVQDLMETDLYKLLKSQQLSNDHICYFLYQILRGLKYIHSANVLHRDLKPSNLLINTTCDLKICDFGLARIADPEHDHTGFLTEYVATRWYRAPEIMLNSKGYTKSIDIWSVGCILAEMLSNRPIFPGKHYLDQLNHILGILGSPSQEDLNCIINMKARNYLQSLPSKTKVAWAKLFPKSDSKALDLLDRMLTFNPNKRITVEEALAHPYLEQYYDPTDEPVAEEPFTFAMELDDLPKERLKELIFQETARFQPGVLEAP

SMILES | Kd
CNC(=O)c1ccc(-c2cnc3ncc(Cc4ccc5ncccc5c4)n3n2)cc1F [CAPMATINIB] | > 30 µM (inactive)
O=C(c1ccc(F)c(F)c1Nc1ccc(I)cc1F)N1CC(O)([C@@H]2CCCCN2)C1 [COBIMETINIB] | > 30 µM (inactive)
Cc1nc(N)sc1-c1ccnc(Nc2ccc(N3CCOCC3)cc2)n1 [CYC-116] | > 30 µM (inactive)

The compounds below were run against T1, RNA cytidine acetyltransferase (Homo sapiens, UniProt Q9H0A0). Conditions: not given.
T1 sequence (Q9H0A0 whole entry): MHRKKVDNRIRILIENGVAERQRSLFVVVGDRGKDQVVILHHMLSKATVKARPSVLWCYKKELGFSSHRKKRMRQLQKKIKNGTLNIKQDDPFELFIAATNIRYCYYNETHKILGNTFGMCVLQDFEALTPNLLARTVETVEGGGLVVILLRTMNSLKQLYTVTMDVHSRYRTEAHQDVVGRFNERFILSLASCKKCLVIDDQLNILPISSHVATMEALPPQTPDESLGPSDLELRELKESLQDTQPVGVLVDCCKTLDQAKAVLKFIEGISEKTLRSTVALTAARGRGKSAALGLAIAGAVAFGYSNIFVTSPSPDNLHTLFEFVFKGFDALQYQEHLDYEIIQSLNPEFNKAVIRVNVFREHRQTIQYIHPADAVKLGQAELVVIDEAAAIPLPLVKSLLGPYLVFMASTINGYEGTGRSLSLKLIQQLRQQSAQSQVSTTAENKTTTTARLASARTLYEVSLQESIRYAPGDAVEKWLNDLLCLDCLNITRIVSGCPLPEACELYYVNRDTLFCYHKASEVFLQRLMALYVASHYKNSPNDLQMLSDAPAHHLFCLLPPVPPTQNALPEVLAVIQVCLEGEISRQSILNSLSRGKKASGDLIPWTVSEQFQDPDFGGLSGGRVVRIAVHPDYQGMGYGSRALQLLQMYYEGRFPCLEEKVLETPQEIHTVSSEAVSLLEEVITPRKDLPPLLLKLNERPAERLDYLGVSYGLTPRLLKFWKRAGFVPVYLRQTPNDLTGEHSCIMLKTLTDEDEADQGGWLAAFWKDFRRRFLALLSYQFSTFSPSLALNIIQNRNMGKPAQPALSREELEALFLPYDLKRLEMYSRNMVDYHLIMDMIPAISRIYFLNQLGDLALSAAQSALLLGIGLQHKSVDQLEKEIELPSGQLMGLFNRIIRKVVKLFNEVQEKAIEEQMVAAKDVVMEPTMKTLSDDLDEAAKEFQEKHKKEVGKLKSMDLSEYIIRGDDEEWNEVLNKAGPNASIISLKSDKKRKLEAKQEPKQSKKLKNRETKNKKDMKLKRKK

SMILES | Kd
CNC(=O)c1ccc(-c2cnc3ncc(Cc4ccc5ncccc5c4)n3n2)cc1F [CAPMATINIB] | > 30 µM (inactive)
O=C(c1ccc(F)c(F)c1Nc1ccc(I)cc1F)N1CC(O)([C@@H]2CCCCN2)C1 [COBIMETINIB] | > 30 µM (inactive)
Cc1nc(N)sc1-c1ccnc(Nc2ccc(N3CCOCC3)cc2)n1 [CYC-116] | > 30 µM (inactive)
CN1CCN(c2ccc3nc(-c4c(N)c5c(F)cccc5[nH]c4=O)[nH]c3c2)CC1 [DOVITINIB] | > 30 µM (inactive)

These compounds were tested against Platelet-derived growth factor receptor beta (Homo sapiens, UniProt P09619). Conditions: not given.
Sequence of Platelet-derived growth factor receptor beta (P09619 whole entry): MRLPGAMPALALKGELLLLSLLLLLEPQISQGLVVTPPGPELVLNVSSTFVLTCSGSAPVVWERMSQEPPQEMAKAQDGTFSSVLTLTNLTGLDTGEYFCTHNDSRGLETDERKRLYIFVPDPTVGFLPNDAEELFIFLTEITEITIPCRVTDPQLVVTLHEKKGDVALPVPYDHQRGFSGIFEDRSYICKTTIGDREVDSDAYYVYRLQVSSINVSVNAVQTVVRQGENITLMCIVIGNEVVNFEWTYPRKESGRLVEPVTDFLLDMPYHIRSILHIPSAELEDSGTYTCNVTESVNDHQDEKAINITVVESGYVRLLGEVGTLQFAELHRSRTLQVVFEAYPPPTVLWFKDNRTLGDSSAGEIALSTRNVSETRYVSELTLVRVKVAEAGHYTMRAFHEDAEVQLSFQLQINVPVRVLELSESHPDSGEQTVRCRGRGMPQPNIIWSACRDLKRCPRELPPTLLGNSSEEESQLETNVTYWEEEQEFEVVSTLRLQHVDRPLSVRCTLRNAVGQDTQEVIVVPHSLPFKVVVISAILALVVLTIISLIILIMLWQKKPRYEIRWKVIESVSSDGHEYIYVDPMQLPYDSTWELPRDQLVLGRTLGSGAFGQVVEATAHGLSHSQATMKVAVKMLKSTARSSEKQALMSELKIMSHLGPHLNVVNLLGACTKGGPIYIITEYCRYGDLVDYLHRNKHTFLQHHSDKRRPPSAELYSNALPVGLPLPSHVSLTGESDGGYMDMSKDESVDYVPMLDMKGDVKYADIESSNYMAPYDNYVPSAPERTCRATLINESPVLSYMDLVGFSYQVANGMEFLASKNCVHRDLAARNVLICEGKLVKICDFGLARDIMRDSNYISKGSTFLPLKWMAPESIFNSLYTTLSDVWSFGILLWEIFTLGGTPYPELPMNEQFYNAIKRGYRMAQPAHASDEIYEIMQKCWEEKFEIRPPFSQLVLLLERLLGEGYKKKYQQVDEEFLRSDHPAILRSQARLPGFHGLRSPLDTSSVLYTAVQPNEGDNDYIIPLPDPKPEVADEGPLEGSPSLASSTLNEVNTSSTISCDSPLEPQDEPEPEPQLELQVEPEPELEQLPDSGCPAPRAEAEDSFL

SMILES | Kd
CNC(=O)c1ccc(-c2cnc3ncc(Cc4ccc5ncccc5c4)n3n2)cc1F [CAPMATINIB] | > 30 µM (inactive)
O=C(c1ccc(F)c(F)c1Nc1ccc(I)cc1F)N1CC(O)([C@@H]2CCCCN2)C1 [COBIMETINIB] | > 30 µM (inactive)

What follows are compounds tested against Rho-associated protein kinase 2 (Homo sapiens, UniProt O75116). Conditions: not given.
Sequence of Rho-associated protein kinase 2 (O75116 whole entry): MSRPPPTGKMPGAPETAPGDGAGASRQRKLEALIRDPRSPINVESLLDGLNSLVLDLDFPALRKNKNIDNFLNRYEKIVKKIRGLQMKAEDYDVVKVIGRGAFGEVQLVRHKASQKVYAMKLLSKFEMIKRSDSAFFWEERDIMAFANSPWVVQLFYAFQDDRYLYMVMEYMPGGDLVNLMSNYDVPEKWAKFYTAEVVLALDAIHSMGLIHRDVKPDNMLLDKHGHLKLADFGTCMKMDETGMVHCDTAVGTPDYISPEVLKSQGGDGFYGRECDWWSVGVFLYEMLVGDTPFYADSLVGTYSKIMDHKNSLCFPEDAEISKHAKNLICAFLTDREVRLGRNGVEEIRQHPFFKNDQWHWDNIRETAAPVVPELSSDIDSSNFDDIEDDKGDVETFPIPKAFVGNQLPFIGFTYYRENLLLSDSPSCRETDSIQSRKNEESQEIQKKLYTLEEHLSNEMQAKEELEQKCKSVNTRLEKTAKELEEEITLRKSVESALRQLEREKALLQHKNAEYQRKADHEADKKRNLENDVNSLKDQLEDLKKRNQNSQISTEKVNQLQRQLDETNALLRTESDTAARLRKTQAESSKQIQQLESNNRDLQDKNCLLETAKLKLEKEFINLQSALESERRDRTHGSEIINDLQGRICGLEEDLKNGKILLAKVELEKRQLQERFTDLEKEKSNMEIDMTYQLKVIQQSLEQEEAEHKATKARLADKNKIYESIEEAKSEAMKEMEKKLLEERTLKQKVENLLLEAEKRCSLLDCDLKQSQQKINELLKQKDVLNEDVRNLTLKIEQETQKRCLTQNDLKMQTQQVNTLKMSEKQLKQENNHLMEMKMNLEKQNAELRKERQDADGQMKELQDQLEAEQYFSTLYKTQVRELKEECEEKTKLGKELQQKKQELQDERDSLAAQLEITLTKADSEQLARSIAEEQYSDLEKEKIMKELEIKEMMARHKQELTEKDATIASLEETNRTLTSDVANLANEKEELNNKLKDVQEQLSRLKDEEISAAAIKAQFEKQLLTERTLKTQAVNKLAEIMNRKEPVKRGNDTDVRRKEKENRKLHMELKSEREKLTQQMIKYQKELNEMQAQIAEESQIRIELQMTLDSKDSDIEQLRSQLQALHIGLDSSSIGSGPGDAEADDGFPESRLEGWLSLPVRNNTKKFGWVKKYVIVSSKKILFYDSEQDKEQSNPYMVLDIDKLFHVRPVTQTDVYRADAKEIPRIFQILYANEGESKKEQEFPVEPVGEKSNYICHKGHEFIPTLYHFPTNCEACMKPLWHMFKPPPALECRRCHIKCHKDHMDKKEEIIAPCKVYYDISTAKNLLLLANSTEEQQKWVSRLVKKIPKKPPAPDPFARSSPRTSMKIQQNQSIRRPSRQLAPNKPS

SMILES | Kd
CNC(=O)c1ccc(-c2cnc3ncc(Cc4ccc5ncccc5c4)n3n2)cc1F [CAPMATINIB] | > 30 µM (inactive)
O=C(c1ccc(F)c(F)c1Nc1ccc(I)cc1F)N1CC(O)([C@@H]2CCCCN2)C1 [COBIMETINIB] | > 30 µM (inactive)

Each compound was assayed against Ribosomal protein S6 kinase beta-1 (Homo sapiens, UniProt P23443). Conditions: not given.
Sequence of Ribosomal protein S6 kinase beta-1 (P23443 whole entry): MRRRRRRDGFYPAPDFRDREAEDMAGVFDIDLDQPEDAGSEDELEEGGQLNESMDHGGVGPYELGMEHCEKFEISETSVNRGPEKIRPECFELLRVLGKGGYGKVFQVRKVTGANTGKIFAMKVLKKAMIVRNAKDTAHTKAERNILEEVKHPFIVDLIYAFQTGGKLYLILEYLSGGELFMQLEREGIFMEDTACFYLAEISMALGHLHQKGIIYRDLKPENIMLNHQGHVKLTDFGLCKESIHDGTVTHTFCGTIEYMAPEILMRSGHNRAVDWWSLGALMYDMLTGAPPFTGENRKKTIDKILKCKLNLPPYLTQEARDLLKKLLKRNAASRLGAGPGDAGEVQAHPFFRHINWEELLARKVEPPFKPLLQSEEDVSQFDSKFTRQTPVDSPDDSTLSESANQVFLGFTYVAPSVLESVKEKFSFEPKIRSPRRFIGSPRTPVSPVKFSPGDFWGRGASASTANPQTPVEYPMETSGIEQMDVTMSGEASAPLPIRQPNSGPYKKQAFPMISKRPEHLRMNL

SMILES | Kd
CNC(=O)c1ccc(-c2cnc3ncc(Cc4ccc5ncccc5c4)n3n2)cc1F [CAPMATINIB] | > 30 µM (inactive)

The compounds below were run against T2, Signal recognition particle receptor subunit alpha (Homo sapiens, UniProt P08240). Conditions: not given.
T2 sequence (P08240 whole entry): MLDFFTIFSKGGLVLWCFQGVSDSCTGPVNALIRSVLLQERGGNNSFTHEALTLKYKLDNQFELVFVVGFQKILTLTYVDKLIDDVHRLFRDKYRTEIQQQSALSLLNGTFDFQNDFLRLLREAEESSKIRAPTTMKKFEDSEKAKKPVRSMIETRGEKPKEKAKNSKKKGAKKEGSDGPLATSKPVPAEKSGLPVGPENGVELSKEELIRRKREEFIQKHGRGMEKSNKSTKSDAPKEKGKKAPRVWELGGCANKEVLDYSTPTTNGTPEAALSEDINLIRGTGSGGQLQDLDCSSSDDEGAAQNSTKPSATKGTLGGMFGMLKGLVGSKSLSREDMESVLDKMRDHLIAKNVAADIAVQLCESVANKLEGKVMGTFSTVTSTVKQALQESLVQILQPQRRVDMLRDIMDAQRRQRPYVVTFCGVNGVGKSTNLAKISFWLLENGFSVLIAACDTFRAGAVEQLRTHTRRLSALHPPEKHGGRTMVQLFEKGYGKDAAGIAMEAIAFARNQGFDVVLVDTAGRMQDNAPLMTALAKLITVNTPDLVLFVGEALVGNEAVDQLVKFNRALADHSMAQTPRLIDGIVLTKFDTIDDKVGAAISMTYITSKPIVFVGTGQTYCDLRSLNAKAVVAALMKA

SMILES | Kd
CNC(=O)c1ccc(-c2cnc3ncc(Cc4ccc5ncccc5c4)n3n2)cc1F [CAPMATINIB] | > 30 µM (inactive)
O=C(c1ccc(F)c(F)c1Nc1ccc(I)cc1F)N1CC(O)([C@@H]2CCCCN2)C1 [COBIMETINIB] | > 30 µM (inactive)
Cc1nc(N)sc1-c1ccnc(Nc2ccc(N3CCOCC3)cc2)n1 [CYC-116] | > 30 µM (inactive)

The compounds below were run against T3, TGF-beta receptor type-1 (Homo sapiens, UniProt P36897). Conditions: not given.
T3 sequence (P36897 whole entry): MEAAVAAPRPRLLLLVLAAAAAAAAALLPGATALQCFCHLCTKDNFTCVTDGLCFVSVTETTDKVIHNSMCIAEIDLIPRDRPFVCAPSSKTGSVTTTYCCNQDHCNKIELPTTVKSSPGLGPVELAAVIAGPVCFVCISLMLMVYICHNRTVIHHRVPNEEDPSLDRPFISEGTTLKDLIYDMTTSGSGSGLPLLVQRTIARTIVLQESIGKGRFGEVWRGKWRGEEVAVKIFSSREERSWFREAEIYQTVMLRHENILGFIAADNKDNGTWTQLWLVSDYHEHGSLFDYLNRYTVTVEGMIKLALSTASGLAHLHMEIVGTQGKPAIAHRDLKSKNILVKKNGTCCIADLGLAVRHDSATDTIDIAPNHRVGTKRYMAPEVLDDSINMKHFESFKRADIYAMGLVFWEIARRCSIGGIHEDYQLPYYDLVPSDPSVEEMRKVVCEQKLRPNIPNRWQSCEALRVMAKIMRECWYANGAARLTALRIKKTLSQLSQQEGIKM

SMILES | Kd
CNC(=O)c1ccc(-c2cnc3ncc(Cc4ccc5ncccc5c4)n3n2)cc1F [CAPMATINIB] | > 30 µM (inactive)
O=C(c1ccc(F)c(F)c1Nc1ccc(I)cc1F)N1CC(O)([C@@H]2CCCCN2)C1 [COBIMETINIB] | > 30 µM (inactive)

Each compound was assayed against T4, Uncharacterized protein FLJ45252 (Homo sapiens, UniProt Q6ZSR9). Conditions: read-out: Kd apparent; k-562, colo 205, sk-n-be(2) and mv-4-11.
T4 sequence (Q6ZSR9 whole entry): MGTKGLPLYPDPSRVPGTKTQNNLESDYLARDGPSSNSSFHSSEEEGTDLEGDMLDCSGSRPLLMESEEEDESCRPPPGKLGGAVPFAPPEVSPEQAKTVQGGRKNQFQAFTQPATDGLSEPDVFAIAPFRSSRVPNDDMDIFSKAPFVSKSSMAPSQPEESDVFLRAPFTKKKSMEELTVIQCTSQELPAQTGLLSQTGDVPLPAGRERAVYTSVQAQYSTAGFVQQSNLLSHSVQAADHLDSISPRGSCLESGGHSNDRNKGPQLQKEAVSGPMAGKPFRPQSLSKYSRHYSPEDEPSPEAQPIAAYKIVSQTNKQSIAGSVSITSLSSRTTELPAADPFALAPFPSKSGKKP

SMILES | Kd
CNC(=O)c1ccc(-c2cnc3ncc(Cc4ccc5ncccc5c4)n3n2)cc1F [CAPMATINIB] | > 30 µM (inactive)
O=C(c1ccc(F)c(F)c1Nc1ccc(I)cc1F)N1CC(O)([C@@H]2CCCCN2)C1 [COBIMETINIB] | > 30 µM (inactive)
Cc1nc(N)sc1-c1ccnc(Nc2ccc(N3CCOCC3)cc2)n1 [CYC-116] | 0.007 µM (active)
CN1CCN(c2ccc3nc(-c4c(N)c5c(F)cccc5[nH]c4=O)[nH]c3c2)CC1 [DOVITINIB] | 0.104 µM (active)
